Measurements taken from patent US5530126A, “Process for the preparation of substituted 6-(pyrazol-3yl)-1,4-benzoxazin-3-ones” (Monsanto Company, priority 1994, dated 1996).
Values joined by “and” are separate entries in the source; they are usually repeats but may differ in a detail not shown here. Equal values may be shown once.

How the values were obtained:
Format in all cases: in vivo
[1] = test system: Barnyardgrass; assay: Pre-emergence herbicide test; details: Echinochloa crus-galli, read-out: % plant inhibition (Bygr); for inhibition at 11210 g/ha: 11.21 kg/ha
Method: (§1) The tests for pre-emergence herbicide activity are conducted as follows:
(§2) Topsoil is placed in an aluminum pan and compacted to a depth of 0.95 to 1.27 cm from the top of the pan. On the top of the soil is placed a predetermined number of seeds of each of several monocotyledonous and dicotyledonous annual plant species and/or vegetative propagules of various perennial plant species. A known amount of the active ingredient dissolved or suspended in an organic solvent, e.g., acetone, or water as carrier is then applied directly to the seed bed, which is then covered with a layer of untreated topsoil to level fill the pan. After treatment, the pans are moved to a greenhouse bench where they are watered from below as needed to give adequate moisture for germination and growth.
(§3) Approximately 10-14 days (usually 11 days) after seeding and treating, the pans are observed and the results (% inhibition) are recorded.
(§4) Tables 7 and 7A below summarize the results of the pre-emergence herbicidal activity tests of compounds of this invention in weeds. The herbicidal rating shown in these tables is the percent inhibition of each plant species. The plant species usually regarded as weeds which are utilized in one set of tests, the data for which are shown in the tables, are identified by letter headings above the columns in accordance with the following legend: […]

[2] = test system: Yellow nutsedge; assay: Pre-emergence herbicide test; details: Cyperus, read-out: % plant inhibition (Yens); for inhibition at 11210 g/ha: 11.21 kg/ha
Method: as §1, §2, §3, §4

[3] = test system: Indian Mustard; assay: Pre-emergence herbicide test; details: Brassica juncea, read-out: % plant inhibition (Inmu); for inhibition at 11210 g/ha: 11.21 kg/ha
Method: as §1, §2, §3, §4

[4] = test system: Velvetleaf; assay: Pre-emergence herbicide test; details: Abutilon theophrasti, read-out: % plant inhibition (Vele); for inhibition at 11210 g/ha: 11.21 kg/ha
Method: as §1, §2, §3, §4

[5] = test system: Morningglory; assay: Pre-emergence herbicide test; details: Ipomoea, read-out: % plant inhibition (Mogl); for inhibition at 11210 g/ha: 11.21 kg/ha
Method: as §1, §2, §3, §4

[6] = test system: Cocklebur; assay: Pre-emergence herbicide test; details: Xanthium strumarium, read-out: % plant inhibition (Cobu); for inhibition at 11210 g/ha: 11.21 kg/ha
Method: as §1, §2, §3, §4

[7] = test system: Seedling johnsongrass; assay: Pre-emergence herbicide test; details: Sorghum halepense, read-out: % plant inhibition (Sejg); for inhibition at 11210 g/ha: 11.21 kg/ha
Method: as §1, §2, §3, §4

[8] = test system: Annual bluegrass; assay: Pre-emergence herbicide test; details: read-out: % plant inhibition (Anbg); for inhibition at 11210 g/ha: 11.21 kg/ha
Method: as §1, §2, §3, §4

[9] = test system: Wild buckwheat; assay: Pre-emergence herbicide test; details: Fallopia convolvulus, read-out: % plant inhibition (Wibw); for inhibition at 11210 g/ha: 11.21 kg/ha
Method: as §1, §2, §3, §4

[10] = test system: Downy Brome; assay: Pre-emergence herbicide test; details: Bromus tectorum, read-out: % plant inhibition (Dobr); for inhibition at 11210 g/ha: 11.21 kg/ha
Method: as §1, §2, §3, §4

[11] = test system: Barnyardgrass; assay: Post-emergence herbicide test; details: Echinochloa crus-galli, 11.21 kg/ha, read-out: % plant inhibition (Bygr)
Text: (§5) Topsoil is placed in aluminum pans having holes in the bottom and compacted to a depth of 0.95 to 1.27 cm from the top of the pan. A predetermined number of seeds of each of several dicotyledonous and monocotyledonous annual plant species and/or vegetative propagules for the perennial plant species are placed on the soil and pressed into the soil surface. The seeds and/or vegetative propagules are covered with soil and leveled. The pans are then placed on a bench in the greenhouse and watered from below as needed. After the plants reach the desired age (two to three weeks), each pan, is removed individually to a spraying chamber and sprayed by means of an atomizer, operating at a spray pressure of 170.3 kPa (10 psig) at the application rates noted. In the spray solution is an amount of an emulsifying agent mixture to give a spray solution or suspension which contains about 0.4% by volume of the emulsifier. The spray solution or suspension contains a sufficient amount of the candidate chemical in order to give application rates of the active ingredient corresponding to those shown in Tables 8 and 8A, while applying a total amount of solution or suspension equivalent to 1870 L/Ha (200 gallons/acre). The pans were returned to the greenhouse and watered as before and the injury to the plants as compared to the control is observed at approximately 10-14 days (usually 11 days) and in some instances observed again at 24-28 days (usually 25 days) after spraying. The post-emergent herbicidal activity shown in these tables is the percent inhibition of each plant species.

[12] = test system: Yellow nutsedge; assay: Post-emergence herbicide test; details: Cyperus, read-out: % plant inhibition (Yens); for inhibition at 11210 g/ha: 11.21 kg/ha
Text: as §5

[13] = test system: Indian Mustard; assay: Post-emergence herbicide test; details: Brassica juncea, 11.21 kg/ha, read-out: % plant inhibition (Inmu)
Text: as §5

[14] = test system: Velvetleaf; assay: Post-emergence herbicide test; details: for inhibition at 11210 g/ha: Abutilon theophrasti, 11.21 kg/ha, read-out: % plant inhibition (Vele)
Text: as §5

[15] = test system: Morningglory; assay: Post-emergence herbicide test; details: for inhibition at 11210 g/ha: 11.21 kg/ha
Text: as §5

[16] = test system: Cocklebur; assay: Post-emergence herbicide test; details: for inhibition at 11210 g/ha: Xanthium strumarium, 11.21 kg/ha, read-out: % plant inhibition (Cobu)
Text: as §5

[17] = test system: Seedling johnsongrass; assay: Post-emergence herbicide test; details: Sorghum halepense, 11.21 kg/ha, read-out: % plant inhibition (Sejg)
Text: as §5

[18] = test system: Annual bluegrass; assay: Post-emergence herbicide test; details: 11.21 kg/ha, read-out: % plant inhibition (Anbg)
Text: as §5

[19] = test system: Downy Brome; assay: Post-emergence herbicide test; details: Bromus tectorum, 11.21 kg/ha, read-out: % plant inhibition (Dobr)
Text: as §5

[20] = Ipomoea, read-out: % plant inhibition (Mogl)

Compound | inhibition at 11210 g/ha [1] | inhibition at 11210 g/ha [2] | inhibition at 11210 g/ha [3] | inhibition at 11210 g/ha [4] | inhibition at 11210 g/ha [5] | inhibition at 11210 g/ha [6] | inhibition at 11210 g/ha [7] | inhibition at 11210 g/ha [8] | inhibition at 11210 g/ha [9] | inhibition at 11210 g/ha [10] | inhibition at 11210 g/ha [11] | inhibition at 11210 g/ha [12] | inhibition at 11210 g/ha [13] | inhibition at 11210 g/ha [14] | inhibition at 11210 g/ha [15, 20] | inhibition at 11210 g/ha [16] | inhibition at 11210 g/ha [17] | inhibition at 11210 g/ha [18] | inhibition at 11210 g/ha [19] | also measured
Cn1nc(C(F)(F)F)c(Cl)c1-c1cc(F)c([N+](=O)[O-])cc1F [Compound 70] | 40% | 0% | 80% | 90% | 80% | 20% | 80% | 40% | 80% | 20% | 40% | 0% | 20% | 50% | 40% | 30% | 10% | 10% | 10% | –
Cn1nc(C(F)(F)F)c(Cl)c1-c1cc(F)c(Cl)cc1Cl [Compound 80] | 70% | 0% | 80% | 100% | 60% | 60% | 80% | 90% | 90% | 70% | 0% | 0% | 0% | 60% | 10% | 10% | 0% | 0% | 0% | –
Cn1nc(-c2cc(F)c(Cl)cc2Cl)c(Cl)c1C(F)(F)F [Compound 84] | 100% | 30% | 100% | 100% | 90% | 80% | 100% | 100% | 100% | 100% | 10% | 10% | 0% | 100% | 50% | 20% | 40% | 10% | 0% | –
Cn1nc(-c2cc(OCC(=O)OC(C)(C)C)c(Cl)cc2F)c(Cl)c1C(F)(F)F [Compound 294, (2-Chloro-5-(4-chloro-1-methyl-5-(trifluoromethyl)-1H-pyrazol-3-yl)-4-fluorophenoxy)acetic acid, 1,1-dimethylethyl ester] | – | – | – | – | – | – | – | – | – | – | – | – | – | – | – | – | – | – | – | inhibition at 1120 g/ha ([1]; 1.12 kg/ha): 20%; inhibition at 1120 g/ha ([2]; 1.12 kg/ha): 0%; inhibition at 1120 g/ha ([3]; 1.12 kg/ha): 0%; inhibition at 1120 g/ha ([4]; 1.12 kg/ha): 70%; inhibition at 1120 g/ha ([5]; 1.12 kg/ha): 70%; inhibition at 1120 g/ha ([6]; 1.12 kg/ha): 80%; inhibition at 1120 g/ha ([7]; 1.12 kg/ha): 20%; inhibition at 1120 g/ha ([8]; 1.12 kg/ha): 0%; inhibition at 1120 g/ha ([9]; 1.12 kg/ha): 90%; inhibition at 1120 g/ha ([10]; 1.12 kg/ha): 20%; inhibition at 1120 g/ha ([12]; 1.12 kg/ha): 0%; % plant inhibition (Vele) ([14]; 1.12 kg/ha): 50% and 80%; % plant inhibition (Mogl) ([15]; 1.12 kg/ha): 90%; inhibition at 1120 g/ha ([15]; Ipomoea, 1.12 kg/ha, read-out: % plant inhibition (Mogl)): 80%; % plant inhibition (Cobu) ([16]; 1.12 kg/ha): 50%
Cn1nc(-c2cc(NC(=O)C3(Br)CC3)c(Cl)cc2F)c(Cl)c1C(F)(F)F [Compound 500, cyclopropanecarboxamide,-1-bromo-N-[2-chloro-5-[4-chloro-1-methyl-5-(trifluoromethyl)-1H-pyrazol-3-yl]-4-fluorophenyl]-] | 30% | 0% | 30% | 70% | 60% | 40% | 70% | 10% | 90% | 80% | – | 0% | – | – | – | – | 90% | 50% | – | –
